# According to PubChem BioAssay AID256 (DTP/NCI, 2004):
# Where “and” joins values, the source holds several entries; their conditions need not be identical. Equal values may be shown once. Toxic doses and inconclusive results are not listed.
# System: CD2F1 mice, L1210 leukemia ip, survival T/C
# Test: NCI In Vivo Anticancer Drug Screen. Data for tumor model L1210 Leukemia (intraperitoneal) in CD2F1 (CDF1) mice
# Conditions: higher = longer survival
# Outline: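 Each value reflects a quotient of treated over vehicle control outcomes in mice with a transplanted tumor.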
# [1] = endpoint: mean survival time, dose: 50.0 mg/kg/injection, schedule: Q01DX009 (ip), vehicle: saline with Tween-80
# [2] = endpoint: mean survival time, dose: 100.0 mg/kg/injection, schedule: Q04DX003 (ip), vehicle: saline with Tween-80
# [3] = endpoint: mean survival time, dose: 100.0 mg/kg/injection, schedule: Q01DX009 (ip), vehicle: saline with Tween-80
# [4] = endpoint: mean survival time, dose: 200.0 mg/kg/injection, schedule: Q01DX009 (ip), vehicle: saline with Tween-80
# [5] = endpoint: mean survival time, dose: 400.0 mg/kg/injection, schedule: Q01DX009 (ip), vehicle: saline with Tween-80
# [6] = endpoint: mean survival time, dose: 50.0 mg/kg/injection, schedule: Q01DX009 (ip), vehicle: other
# [7] = endpoint: mean survival time, dose: 100.0 mg/kg/injection, schedule: Q01DX009 (ip), vehicle: other
# [8] = endpoint: mean survival time, dose: 200.0 mg/kg/injection, schedule: Q01DX009 (ip), vehicle: other
# [9] = endpoint: mean survival time, dose: 200.0 mg/kg/injection, schedule: Q04DX003 (ip), vehicle: saline with Tween-80
# [10] = endpoint: mean survival time, dose: 400.0 mg/kg/injection, schedule: Q04DX003 (ip), vehicle: saline with Tween-80
smiles,measurement,setting,value
CCCCC/C(C)=C(/C#N)C(=O)OCC,T/C,"endpoint: mean survival time, dose: 75.0 mg/kg/injection, schedule: Q01DX001 (ip), vehicle: saline",97 % of control
same,T/C,"endpoint: mean survival time, dose: 150.0 mg/kg/injection, schedule: Q01DX001 (ip), vehicle: saline",96 % of control
same,T/C,"endpoint: mean survival time, dose: 300.0 mg/kg/injection, schedule: Q01DX001 (ip), vehicle: saline",97 % of control
CCN(CC)CCOc1ccc(/C(=C(\Cl)c2ccccc2)c2ccccc2)cc1,T/C,"endpoint: mean survival time, dose: 3.12 mg/kg/injection, schedule: Q04DX003 (ip), vehicle: saline with Tween-80",100 % of control
same,T/C,"endpoint: mean survival time, dose: 3.13 mg/kg/injection, schedule: Q01DX009 (ip), vehicle: saline with Tween-80",104 % of control
same,T/C,"endpoint: mean survival time, dose: 6.25 mg/kg/injection, schedule: Q01DX009 (ip), vehicle: saline with Tween-80",102 % of control
same,T/C,"endpoint: mean survival time, dose: 6.25 mg/kg/injection, schedule: Q04DX003 (ip), vehicle: saline with Tween-80",94 % of control
same,T/C,"endpoint: mean survival time, dose: 12.5 mg/kg/injection, schedule: Q01DX009 (ip), vehicle: saline with Tween-80",105 % of control
same,T/C,"endpoint: mean survival time, dose: 12.5 mg/kg/injection, schedule: Q04DX003 (ip), vehicle: saline with Tween-80",97 % of control
same,T/C,"endpoint: mean survival time, dose: 25.0 mg/kg/injection, schedule: Q01DX009 (ip), vehicle: saline with Tween-80",107 % of control
same,T/C,"endpoint: mean survival time, dose: 25.0 mg/kg/injection, schedule: Q04DX003 (ip), vehicle: saline with Tween-80",97 % of control
same,T/C,[1],91 % of control
same,T/C,"endpoint: mean survival time, dose: 50.0 mg/kg/injection, schedule: Q04DX003 (ip), vehicle: saline with Tween-80",100 % of control
same,T/C,[2],105 % of control
CC(=O)Nc1ccccc1OC(=O)OCC(Cl)(Cl)Cl,T/C,[3],96 % of control
same,T/C,[4],96 % of control
same,T/C,[5],101 % of control
O=S(=O)(/C(=C\c1ccccc1)c1ccccc1)c1ccccc1,T/C,"endpoint: mean survival time, dose: 100.0 mg/kg/injection, schedule: Q04DX003 (ip), vehicle: saline",90 % of control
same,T/C,"endpoint: mean survival time, dose: 200.0 mg/kg/injection, schedule: Q01DX009 (ip), vehicle: saline",90 % of control
same,T/C,"endpoint: mean survival time, dose: 200.0 mg/kg/injection, schedule: Q04DX003 (ip), vehicle: saline",92 % of control
same,T/C,"endpoint: mean survival time, dose: 400.0 mg/kg/injection, schedule: Q01DX009 (ip), vehicle: saline",88 % of control
same,T/C,"endpoint: mean survival time, dose: 400.0 mg/kg/injection, schedule: Q04DX003 (ip), vehicle: saline",90 % of control
Cc1cc(=O)cc(C(=O)O)o1,T/C,[6],107 % of control
same,T/C,[7],95 % of control
same,T/C,[8],93 % of control
O=C(O)c1cc(Cc2ccc(O)c(C(=O)O)c2)ccc1O (tested in a mixture with another compound),T/C,"endpoint: median survival time, dose: 6.25 mg/kg/injection, schedule: Q01DX009 (ip), vehicle: Klucel (hydroxypropylcellulose) (HPC)",101 % of control
same,T/C,"endpoint: median survival time, dose: 12.5 mg/kg/injection, schedule: Q01DX009 (ip), vehicle: Klucel (hydroxypropylcellulose) (HPC)",104 % of control
same,T/C,"endpoint: median survival time, dose: 25.0 mg/kg/injection, schedule: Q01DX009 (ip), vehicle: Klucel (hydroxypropylcellulose) (HPC)",104 % of control
same,T/C,"endpoint: median survival time, dose: 50.0 mg/kg/injection, schedule: Q01DX009 (ip), vehicle: Klucel (hydroxypropylcellulose) (HPC)",97 % of control
same,T/C,"endpoint: median survival time, dose: 100.0 mg/kg/injection, schedule: Q01DX009 (ip), vehicle: Klucel (hydroxypropylcellulose) (HPC)",96 % of control
same,T/C,"endpoint: median survival time, dose: 200.0 mg/kg/injection, schedule: Q01DX009 (ip), vehicle: Klucel (hydroxypropylcellulose) (HPC)",89 % of control
O=C1c2ccccc2CC1c1ccccc1 (configuration not stated),T/C,"endpoint: mean survival time, dose: 12.5 mg/kg/injection, schedule: Q01DX009 (ip), vehicle: other",102 % of control
same,T/C,"endpoint: mean survival time, dose: 25.0 mg/kg/injection, schedule: Q01DX009 (ip), vehicle: other",102 % of control
same,T/C,[6],97 % of control
same,T/C,[7],96 % of control
same,T/C,[8],100 % of control
O=[N+]([O-])c1ccc(/C=C/c2ccccc2)cc1,T/C,[3],104 % of control
same,T/C,[2],102 % of control
same,T/C,[4],100 % of control
same,T/C,[9],104 % of control
same,T/C,[5],98 % of control
same,T/C,[10],96 % of control
O=C1OCCC1C(=O)C(O)(C(F)(F)F)C(F)(F)F (configuration not stated),T/C,"endpoint: mean survival time, dose: 100.0 mg/kg/injection, schedule: Q04DX003 (ip), vehicle: other",113 % of control
same,T/C,"endpoint: mean survival time, dose: 200.0 mg/kg/injection, schedule: Q04DX003 (ip), vehicle: other",87 % of control
same,T/C,"endpoint: mean survival time, dose: 400.0 mg/kg/injection, schedule: Q04DX003 (ip), vehicle: other",107 % of control
NNC(=O)c1ccc(Cl)cc1Nc1cccc(Cl)c1,T/C,[2],112 % of control
same,T/C,[9],89 % of control
O=[N+]([O-])c1cccc(C[n+]2ccccc2C2OCCO2)c1,T/C,"endpoint: mean survival time, dose: 6.25 mg/kg/injection, schedule: Q01DX009 (ip), vehicle: saline",101 % of control
same,T/C,"endpoint: mean survival time, dose: 12.5 mg/kg/injection, schedule: Q01DX009 (ip), vehicle: saline",101 % of control
same,T/C,"endpoint: mean survival time, dose: 12.5 mg/kg/injection, schedule: Q04DX003 (ip), vehicle: saline",104 % of control
same,T/C,"endpoint: mean survival time, dose: 25.0 mg/kg/injection, schedule: Q01DX009 (ip), vehicle: saline",96 % of control
same,T/C,"endpoint: mean survival time, dose: 25.0 mg/kg/injection, schedule: Q04DX003 (ip), vehicle: saline",114 % of control
CCOC(=O)/C(C)=C/C(O)CO (configuration not stated),T/C,"endpoint: mean survival time, dose: 100.0 mg/kg/injection, schedule: Q01DX009 (ip), vehicle: saline sonified",96 % of control
same,T/C,[2],105 % of control
same,T/C,"endpoint: mean survival time, dose: 200.0 mg/kg/injection, schedule: Q01DX009 (ip), vehicle: saline sonified",95 % of control
same,T/C,[9],98 % of control
same,T/C,[10],96 % of control
O=C(/C=C/c1ccccc1)N1CCCCC1,T/C,[2],98 % of control
same,T/C,[9],89 % of control
same,T/C,[10],94 % of control
NC(=O)N/N=C1/CCCC2CCCCC12 (configuration not stated),T/C,"endpoint: mean survival time, dose: 150.0 mg/kg/injection, schedule: Q04DX003 (ip), vehicle: saline with Tween-80",93 % of control
same,T/C,"endpoint: mean survival time, dose: 300.0 mg/kg/injection, schedule: Q04DX003 (ip), vehicle: saline with Tween-80",89 % of control
N#CC(/C=C/c1ccccc1)Nc1ccccc1C(N)=O (configuration not stated),T/C,"endpoint: mean survival time, dose: 100.0 mg/kg/injection, schedule: Q04DX003 (ip), vehicle: saline sonified",97 % of control
same,T/C,"endpoint: mean survival time, dose: 200.0 mg/kg/injection, schedule: Q04DX003 (ip), vehicle: saline sonified",97 % of control
same,T/C,"endpoint: mean survival time, dose: 400.0 mg/kg/injection, schedule: Q04DX003 (ip), vehicle: saline sonified",97 % of control
CCN(CC)CCC(=O)Nc1cccc2c1C(=O)c1c(c(O)c3ccccc3c1O)C2=O,T/C,"endpoint: mean survival time, dose: 6.0 mg/kg/injection, schedule: Q04DX003 (ip), vehicle: saline with Tween-80",100 % of control
same,T/C,"endpoint: mean survival time, dose: 12.0 mg/kg/injection, schedule: Q04DX003 (ip), vehicle: saline with Tween-80",100 % of control
same,T/C,"endpoint: mean survival time, dose: 24.0 mg/kg/injection, schedule: Q04DX003 (ip), vehicle: saline with Tween-80",100 % of control
same,T/C,"endpoint: mean survival time, dose: 48.0 mg/kg/injection, schedule: Q04DX003 (ip), vehicle: saline with Tween-80",103 % of control
Cc1ccc(NC(=O)N2CCCCC2C)cc1[N+](=O)[O-] (configuration not stated),T/C,[1],102 % of control
same,T/C,[3],94 % of control
same,T/C,[4],102 % of control
CCCCCCCCC(=O)O,T/C,[2],100 % of control
same,T/C,[9],100 % of control
same,T/C,[10],102 % of control
CC(=O)CCCN(CCO)CCO,T/C,"endpoint: mean survival time, dose: 100.0 mg/kg/injection, schedule: Q01DX001 (ip), vehicle: saline",103 % of control
same,T/C,"endpoint: mean survival time, dose: 200.0 mg/kg/injection, schedule: Q01DX001 (ip), vehicle: saline",93 % of control
same,T/C,"endpoint: mean survival time, dose: 400.0 mg/kg/injection, schedule: Q01DX001 (ip), vehicle: saline",101 % of control
COc1cccc2c1C(=O)c1c(O)c3c(c(O)c1C2=O)C[C@@](O)(C(=O)CO)C[C@@H]3OC1CC(N)C(OC)C(C)O1 (some centres not stated),T/C,"endpoint: mean survival time, dose: 0.54 mg/kg/injection, schedule: Q01DX009 (ip), vehicle: saline",159 % of control
same,T/C,"endpoint: mean survival time, dose: 0.65 mg/kg/injection, schedule: Q01DX009 (ip), vehicle: saline",207 % of control
same,T/C,"endpoint: mean survival time, dose: 0.9 mg/kg/injection, schedule: Q01DX009 (ip), vehicle: saline",229 % of control
same,T/C,"endpoint: mean survival time, dose: 1.08 mg/kg/injection, schedule: Q01DX009 (ip), vehicle: saline",319 % of control
same,T/C,"endpoint: mean survival time, dose: 1.3 mg/kg/injection, schedule: Q01DX001 (ip), vehicle: saline",161 % of control
same,T/C,"endpoint: mean survival time, dose: 1.8 mg/kg/injection, schedule: Q01DX009 (ip), vehicle: saline",250 % of control
same,T/C,"endpoint: mean survival time, dose: 2.16 mg/kg/injection, schedule: Q01DX001 (ip), vehicle: saline",161 % of control
same,T/C,"endpoint: mean survival time, dose: 3.0 mg/kg/injection, schedule: Q01DX009 (ip), vehicle: saline",93 % of control
same,T/C,"endpoint: mean survival time, dose: 3.6 mg/kg/injection, schedule: Q01DX001 (ip), vehicle: saline",168 % of control and 170 % of control
same,T/C,"endpoint: mean survival time, dose: 6.0 mg/kg/injection, schedule: Q01DX001 (ip), vehicle: saline",189 % of control and 353 % of control
same,T/C,"endpoint: mean survival time, dose: 10.0 mg/kg/injection, schedule: Q01DX001 (ip), vehicle: saline",187 % of control and 260 % of control
Nc1nc(CCCCc2ccccc2)cc(=O)[nH]1,T/C,[2],93 % of control
same,T/C,[9],89 % of control
same,T/C,[10],91 % of control
O=C(NS(=O)(=O)c1ccc(Cl)cc1)OCCCl,T/C,[3],96 % of control
same,T/C,[2],97 % of control
same,T/C,[4],96 % of control
same,T/C,[9],97 % of control
same,T/C,[10],102 % of control
